In this assay the target is T1, iPLA2β (Cricetulus griseus, UniProt A0A3L7I2I8).
T1 construct: (His)6; made in house; host or cells: Sf9 insect cells (baculovirus)
T1 sequence (A0A3L7I2I8 1-752 isoform A0A3L7I2I8-2): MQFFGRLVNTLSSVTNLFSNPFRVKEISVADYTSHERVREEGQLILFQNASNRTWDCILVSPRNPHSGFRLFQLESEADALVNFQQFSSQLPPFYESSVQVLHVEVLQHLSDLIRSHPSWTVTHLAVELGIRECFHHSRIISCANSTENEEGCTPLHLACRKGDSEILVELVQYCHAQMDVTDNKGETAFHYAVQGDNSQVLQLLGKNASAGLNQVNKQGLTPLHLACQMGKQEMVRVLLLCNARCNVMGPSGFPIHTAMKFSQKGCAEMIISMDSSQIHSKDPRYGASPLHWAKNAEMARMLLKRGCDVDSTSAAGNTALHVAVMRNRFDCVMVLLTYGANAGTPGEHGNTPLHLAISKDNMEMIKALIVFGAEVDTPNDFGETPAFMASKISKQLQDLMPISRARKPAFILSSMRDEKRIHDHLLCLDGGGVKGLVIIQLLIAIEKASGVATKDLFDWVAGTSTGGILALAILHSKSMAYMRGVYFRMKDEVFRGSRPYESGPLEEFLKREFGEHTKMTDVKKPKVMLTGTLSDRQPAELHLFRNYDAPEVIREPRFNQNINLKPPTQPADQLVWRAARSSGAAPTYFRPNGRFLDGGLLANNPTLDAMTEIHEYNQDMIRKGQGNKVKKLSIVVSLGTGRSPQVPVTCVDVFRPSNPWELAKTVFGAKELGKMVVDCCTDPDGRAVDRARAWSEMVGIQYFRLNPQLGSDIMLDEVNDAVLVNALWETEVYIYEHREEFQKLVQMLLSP
Description: iPLA2β phospholipase A2 activity with radiolabeled POPC substrate. The class given is biochemical. The following applies: oleoyl-CoA 10 μM, [14C]-POPC substrate, FIG. 11I. How it is done: FIG. 9—Calcium-independent iPLA2β was pre-incubated in the presence of Ca^2+ (1 mM) or Ca^2+-CaM (3 μg) on ice before addition to 95 μM POPC containing either 5 mol % [1-^14C]-POPC or [1-^14C]-palmitoyl-CoA in 100 mM Tris-HCl, pH 7.2. After incubation at 37° C. for 3 min, reactions were terminated by vortexing in the presence of butanol and released radiolabeled fatty acids were resolved by TLC and quantitated by liquid scintillation spectrometry as described in Experimental Procedures.
FIGS. 11A-11D—Purified iPLA2β+/−Ca^2+/CaM was incubated with POPC/BODIPY-PC (95:5 mol %) host vesicles for 2 min at 37° C. with the indicated concentrations of guest oleoyl-CoA. Relative fluorescence was recorded utilizing 495 nm excitation and 515 nm emission wavelengths as described in Experimental Procedures. […] Radiolabeled fatty acid was extracted into butanol, resolved by TLC, and quantified by scintillation spectrometry as described in Experimental Procedures.
Phospholipase A2 and Acyl-CoA Hydrolase Enzymatic Assays—Purified recombinant iPLA2β(His)6 (peptide disclosed as SEQ ID NO: 4) (0.1-1 μg) was incubated with radiolabeled phospholipid or acyl-CoA in 25 mM Tris-HCl, pH 7.2 containing 1 mM EGTA (200 μl final volume) for 1-2 mm at 37° C. […] Incorporation of acyl-CoA into the POPC/DOPS vesicles employed was determined as described previously (64). […]

In general, inhibition refers to how much of the control response was suppressed. Turning to `CCCCCCCC/C=C\CCCCCCCC(=O)SCCNC(=O)CCNC(=O)[C@H](O)C(C)(C)COP(=O)(O)OP(=O)(O)OC[C@H]1O[C@@H](n2cnc3c(N)ncnc32)[C@H](O)[C@@H]1OP(=O)(O)O` [oleoyl-CoA], the “activity of CaM-inhibited iPLA2β, % of the activity observed with oleoyl-CoA alone” value is recorded as “approximately 75%”. The inhibition at 10 µM (no CaM, read-out: inhibition of iPLA2β activity by oleoyl-CoA alone) came out at 20%.

The record behind these values is US8148097B2, “Screening method for identification of compounds with calcium-independent phospholipase A2β (iPLA2β) modulating activity” (Washington University, priority 2005, dated 2012).
